# Target: MCH receptor (Homo sapiens, UniProt Q99705)
# Experiment: High throughput functional screening FLIPR/FDSS6000: inhibition of MCH-evoked intracellular Ca2+ changes
# Type: cell-based
# Details: class by percent of control at 10^−7 M or by IC50; read-out: class
# Procedure, shortened: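 In a kinetic calcium-flux format, compounds were tested at various concentrations against 50 nM MCH. Fluo4-loaded cells expressing a constitutively active, non-endogenous receptor were imaged at 488/530 nm for 290 s after agonist addition.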
row,SMILES,IC50
1,"CN(C)c1nc(N[C@H]2CC[C@@H](C(=O)NCc3cc(F)c(F)cc3F)CC2)nc2ccccc12 [Example 1170, cis-4-{[4-(dimethylamino)quinazolin-2-yl]amino}-N-(2,4,5-trifluorobenzyl)cyclohexanecarboxamide]",< 50 nM
2,"CN(C)c1nc(N[C@H]2CC[C@@H](C(=O)NCc3cc(F)c(F)c(F)c3)CC2)nc2ccccc12 [Example 1171, cis-4-{[4-(dimethylamino)quinazolin-2-yl]amino}-N-(3,4,5-trifluorobenzyl)cyclohexanecarboxamide]",< 50 nM
3,"CN(C)c1nc(N[C@H]2CC[C@@H](C(=O)NCc3c(F)ccc(F)c3F)CC2)nc2ccccc12 [Example 1172, cis-4-{[4-(dimethylamino)quinazolin-2-yl]amino}-N-(2,3,6-trifluorobenzy)cyclohexanecarboxamide]",< 50 nM
4,"CN(C)c1nc(N[C@H]2CC[C@@H](C(=O)NCc3cc(F)cc(C(F)(F)F)c3)CC2)nc2ccccc12 [Example 1173, cis-4-{[4-(dimethylamino)quinazolin-2-yl]amino}-N-[3-fluoro-5-(trifluoromethyl)benzyl]cyclohexanecarboxamide]",< 50 nM
5,"CN(C)c1nc(N[C@H]2CC[C@@H](C(=O)NCc3ccc(F)cc3C(F)(F)F)CC2)nc2ccccc12 [Example 1174, cis-4-{[4-(dimethylamino)quinazolin-2-yl]amino}-N-[4-fluoro-2-(trifluoromethyl)benzyl]cyclohexanecarboxamide]",< 50 nM
6,"CN(C)c1nc(N[C@H]2CC[C@@H](C(=O)NCc3ccc(C(F)(F)F)cc3F)CC2)nc2ccccc12 [Example 1175, cis-4-{[4-(dimethylamino)quinazolin-2-yl]amino}-N-[2-fluoro-4-(trifluoromethyl)benzyl]cyclohexanecarboxamide]",< 50 nM
7,"CN(C)c1nc(N[C@H]2CC[C@@H](C(=O)NCc3ccc(F)c(C(F)(F)F)c3)CC2)nc2ccccc12 [Example 1176, cis-4-{[4-(dimethylamino)quinazolin-2-yl]amino}-N-[4-fluoro-3-(trifluoromethyl)benzyl]cyclohexanecarboxamide]",< 50 nM
8,"CN(C)c1nc(N[C@H]2CC[C@@H](C(=O)NCc3cccc(C(F)(F)F)c3F)CC2)nc2ccccc12 [Example 1177, cis-4-{[4-(dimethylamino)quinazolin-2-yl]amino}-N-[2-fluoro-3-(trifluoromethyl)benzyl]cyclohexanecarboxamide]",< 50 nM
9,"CN(C)c1nc(N[C@H]2CC[C@@H](C(=O)NCc3ccc(Cl)c(C(F)(F)F)c3)CC2)nc2ccccc12 [Example 1178, cis-N-[4-chloro-3-(trifluoromethyl)benzyl]-4-{[4-(dimethylamino)quinazolin-2-yl]amino}cyclohexanecarboxamide]",< 50 nM
10,"CN(C)c1nc(N[C@H]2CC[C@@H](C(=O)NCc3c(F)cccc3Cl)CC2)nc2ccccc12 [Example 1179, cis-N-(2-chloro-6-fluorobenzyl)-4-{[4-(dimethylamino)quinazolin-2-yl]amino}cyclohexanecarboxamide]",< 50 nM
11,"CN(C)c1nc(N[C@H]2CC[C@@H](C(=O)NCc3ccc(F)c(Cl)c3)CC2)nc2ccccc12 [Example 1181, cis-N-(3-chloro-4-fluorobenzyl)-4-{[4-(dimethylamino)quinazolin-2-yl]amino}cyclohexanecarboxamide]",< 50 nM
12,"CN(C)c1nc(N[C@H]2CC[C@@H](C(=O)NCc3ccc(F)cc3Cl)CC2)nc2ccccc12 [Example 1182, cis-N-(2-chloro-4-fluorobenzyl)-4-{[4-(dimethylamino)quinazolin-2-yl]amino}cyclohexanecarboxamide]",< 50 nM
13,"CN(C)c1nc(N[C@H]2CC[C@@H](C(=O)NCc3cc(C(F)(F)F)ccc3Cl)CC2)nc2ccccc12 [Example 1183, cis-N-[2-chloro-5-(trifluoromethyl)benzyl]-4-{[4-(dimethylamino)quinazolin-2-yl]amino}cyclohexanecarboxamide]",< 50 nM
14,"CN(C)c1nc(N[C@H]2CC[C@@H](C(=O)NCc3ccccc3OC(F)F)CC2)nc2ccccc12 [Example 1184, cis-N-[2-(difluoromethoxy)benzyl]-4-{[4-(dimethylamino)quinazolin-2-yl]amino}cyclohexanecarboxamide]",< 50 nM
15,"CN(C)c1nc(N[C@H]2CC[C@@H](C(=O)NCc3cccc(OC(F)F)c3)CC2)nc2ccccc12 [Example 1185, cis-N-[3-(difluoromethoxy)benzyl]-4-{[4-(dimethylamino)quinazolin-2-yl]amino}cyclohexanecarboxamide]",< 50 nM
16,"CN(C)c1nc(N[C@H]2CC[C@@H](C(=O)NCc3cccc(OC(F)(F)F)c3)CC2)nc2ccccc12 [Example 1186, cis-4-{[4-(dimethylamino)quinazolin-2-yl)amino}-N-[3-(trifluoromethoxy)benzyl]cyclohexanecarboxamide]",< 50 nM
17,"Cc1cc(Cl)cc(Cl)c1CNC(=O)[C@H]1CC[C@@H](Nc2nc(N(C)C)c3ccccc3n2)CC1 [Example 1187, cis-N-(2,4-dichloro-6-methylbenzyl)-4-{[4-(dimethylamino)quinazolin-2-yl]amino}cyclohexanecarboxamide]",50 to 200 nM

row,SMILES,IC50
1,"COc1cccc(OC)c1CNC(=O)[C@H]1CC[C@@H](Nc2nc(N(C)C)c3ccccc3n2)CC1 [Example 1188, cis-N-(2,6-dimethoxybenzyl)-4-{[4-(dimethylamino)quinazolin-2-yl]amino}cyclohexanecarboxamide]",< 50 nM
2,"C[C@@H](NC(=O)[C@H]1CC[C@@H](Nc2nc(N(C)C)c3ccccc3n2)CC1)c1ccccc1 [Example 1189, cis-4-{[4-(dimethylamino)quinazolin-2-yl]amino}-N-[(1R)-1-phenylethyl]cyclohexanecarboxamide]",< 50 nM
3,"COc1ccc([C@H](C)NC(=O)[C@H]2CC[C@@H](Nc3nc(N(C)C)c4ccccc4n3)CC2)cc1 [Example 1190, cis-4-{[4-(dimethylamino)quinazolin-2-yl]amino}-N-[(1S)-1-(4-methoxyphenyl)ethyl]cyclohexanecarboxamide]",< 50 nM
4,"COc1ccc(C(NC(=O)[C@H]2CC[C@@H](Nc3nc(N(C)C)c4ccccc4n3)CC2)c2ccc(OC)cc2)cc1 [Example 1192, cis-N-[bis(4-methoxyphenyl)methyl]-4-{[4-(dimethylamino)quinazolin-2-yl]amino}cyclohexanecarboxamide]",< 50 nM
5,"CN(C)c1nc(N[C@H]2CC[C@@H](C(=O)NCc3ccccc3C(F)(F)F)CC2)nc2ccccc12 [Example 1193, cis-4-{[4-(dimethylamino)quinazolin-2-yl]amino}-N-[2-(trifluoromethyl)benzyl]cyclohexanecarboxamide]",< 50 nM
6,"CN(C)c1nc(N[C@H]2CC[C@@H](C(=O)NC3c4ccccc4-c4ccccc43)CC2)nc2ccccc12 [Example 1194, cis-4-{[4-(dimethylamino)quinazolin-2-yl]amino}-N-9H-fluoren-9-ylcyclohexanecarboxamide]",< 50 nM
7,"CN(C)c1nc(N[C@H]2CC[C@@H](C(=O)NCc3ccc(S(C)(=O)=O)cc3)CC2)nc2ccccc12 [Example 1195, cis-4-{[4-(dimethylamino)quinazolin-2-yl]amino}-N-[4-(methylsulfonyl)benzyl]cyclohexanecarboxamide]",< 50 nM
8,"CN(C)c1nc(N[C@H]2CC[C@@H](C(=O)Nc3ccc(Cl)nc3)CC2)nc2ccccc12 [Example 1196, cis-N-(6-chloropyridin-3-yl)-4-{[4-(dimethylamino)quinazolin-2-yl]amino}cyclohexanecarboxamide]",< 50 nM
9,"CN(C)c1nc(N[C@H]2CC[C@@H](C(=O)Nc3cccnc3Cl)CC2)nc2ccccc12 [Example 1197, cis-N-(2-chloropyridin-3-yl)-4-{[4-(dimethylamino)quinazolin-2-yl]amino}cyclohexanecarboxamide]",> 200 nM
10,"CN(C)c1nc(N[C@H]2CC[C@@H](C(=O)Nc3nc4ccccc4[nH]3)CC2)nc2ccccc12 [Example 1198, cis-N-1H-benzimidazol-2-yl-4-{[4-(dimethylamino)quinazolin-2-yl]amino}cyclohexanecarboxamide]",> 200 nM
11,"CN(C)c1nc(N[C@H]2CC[C@@H](C(=O)Nc3nc(C(C)(C)C)c(Br)s3)CC2)nc2ccccc12 [Example 1199, cis-N-(5-bromo-4-tert-butyl-1,3-thiazol-2-yl)-4-{[4(dimethylamino)quinazolin-2-yl]amino}cyclohexanecarboxamide]",> 200 nM
12,"CCC(=O)Nc1cccc(C(=O)N[C@H]2CC[C@@H](Nc3nc(N(C)C)c4ccccc4n3)CC2)c1 [Example 1200, N-(cis-4-{[4-(dimethylamino)quinazolin-2-yl]amino}cyclohexyl)-3-(propionylamino)benzamide]",< 50 nM
13,"CC(C)CC(=O)Nc1cccc(C(=O)N[C@H]2CC[C@@H](Nc3nc(N(C)C)c4ccccc4n3)CC2)c1 [Example 1201, N-(cis-4-{[4-(dimethylamino)quinazolin-2-yl]amino}cyclohexyl)-3-[(3-methylbutanoyl)amino]benzamide]",50 to 200 nM
14,"CN(C)c1nc(N[C@H]2CC[C@@H](NC(=O)c3cccc(NC(=O)C(C)(C)C)c3)CC2)nc2ccccc12 [Example 1202, N-(cis-4-{(4-(dimethylamino)quinazolin-2-yl]amino}cyclohexyl)-3-[(2,2-dimethylpropanoyl)amino]benzamide]",50 to 200 nM
15,"CN(C)c1nc(N[C@H]2CC[C@@H](NC(=O)c3cccc(NC(=O)C4CCCC4)c3)CC2)nc2ccccc12 [Example 1203, 3-[(cyclopentylcarbonyl)amino]-N-(cis-4-{[4-(dimethylamino)quinazolin-2-yl]amino}cyclohexyl)benzamide]",< 50 nM
16,"CC(=O)Nc1cccc(C(=O)N[C@H]2CC[C@@H](Nc3nc(N(C)C)c4ccccc4n3)CC2)c1 [Example 1204, 3-(acetylamino)-N-(cis-4-{[4-(dimethylamino)quinazolin-2-yl]amino}cyclohexyl)benzamide]",< 50 nM

# Source: patent publication US20070010671A1, “Novel quinazoline derivatives and methods of treatment related to the use thereof” (priority 2003, published 2007)
